# Experimental data reported in US9708325B2, “Sulfonimidoylpurinone compounds and derivatives for the treatment and prophylaxis of virus infection” (Hoffmann-La Roche Inc., priority 2015, dated 2017).
# Assays:
# [1] = system: Salmonella typhimurium tester strains (TA1535, TA97, TA98, TA100, and TA102); assay: Ames microsuspension assay; type: cell-based; conditions: five strains, absence and presence of S9
# Method: The Ames microsuspension assay examines if a compound causes DNA mutations. The method was based on a modified pre-incubation version described by Kado et al (see references: B. N. Ames, J. McCann, E. Yamasaki, Mutation Res. 1975, 31, 347-364 N.Y. Kado, D. Langley, and E. Eisenstadt, Mutation Res. 1983, 121, 25-32). Five Salmonella typhimurium tester strains (TA1535, TA97, TA98, TA100, and TA102) were treated with the test compound in absence and in presence of an exogenous metabolic activation system (S9). The bacteria were pre-incubated for 1 h, the pre-incubation volume is 210 μL (100 μL of overnight culture, 100 μL of S9 mix (10% S9) or 100 μL phosphate buffer, and 10 μL test compound solution). The overnight cultures were resuspended for the test in cold phosphate buffer. The S9 mix contains potassium chloride, magnesium chloride, sodium phosphate buffered saline, NADP^+ and glucose-6-phosphate. The test tubes are incubated and shaken for 60 minutes at 37° C. 2.2 mL soft agar supplemented with L-histidine and biotin was added afterwards and the content of the tubes were mixed and poured on Vogel-Bonner minimal agar plates.
# Three replicate plates for the test compound and negative control or two replicate plates for the positive controls were incubated at 37° C., upside down, for 2 days. Colonies were counted electronically using an automatic image analysis system after having inspected the background lawn for signs of toxicity.
# S9 is an in vitro metabolic system which is obtained from liver homogenates by centrifuging them at 9000 g for 20 minutes. It contains CYP450 isoforms, phase-II metabolic enzymes, etc. In the Ames microsuspension assay test, S9 is used to assess mutagenicity of compounds, some of which require metabolic activation to become mutagenic.
# Criteria of the Ames microsuspension assay: a positive result is defined as a reproducible, dose-related increase in the number of revertant colonies in at least one of the strains. For TA1535 and TA98, the positive threshold is a 2-fold increase over control. For TA97, TA100 and TA102, the threshold is a 1.5-fold increase.
# [2] = GSH adduct screening assay; type: in vitro ADME, rat and human; design: key: No flag: No Flag: no GSH adduct formation observed when compared to control (DMSO); conditions: 20 μM, RLM and HLM, 60 minutes
# Method: The formation of reactive metabolites is an unwanted drug property because of the idiosyncratic clinical adverse effect. GSH adduct formation is used to evaluate the formation of reactive metabolites in vitro. Positive controls were Diclofenac, Troglitazone, Nefazodone and mGluR5. Solvent control was DMSO.
# All compounds including positive and solvent control were incubated using a 96-deep-well plate (Eppendorf) at 20 μM (addition of 1 μL of 10 mM DMSO stock solution) in 450 μL of 0.1 M sodium phosphate buffer at pH 7.4 containing rat liver microsomes (RLM) and human liver microsomes (HLM). Microsomal protein concentration is 1 mg/mL. Pipetting was performed using a TECAN pipetting robot. The buffer was prepared at room temperature by combining 2.62 g NaH2PO4.1H2O and 14.43 g Na2HPO4.2H2O dissolved in H2O (Millipore, >18 MΩ) to a weight of 1000 g (pH 7.4). After 5 minutes of pre-incubation at 37° C. the reaction was started by adding 50 μL of buffer containing GSH (100 mM) and NADPH (20 mM). Fresh stock solutions of GSH and NADPH were prepared straight before each experiment. The final concentrations were […] for GSH and 1 mM for NADPH. After 60 minutes of incubation at 37° C. (shaking at 800 rpm) the reaction is quenched with 500 μL of cold acetonitrile and centrifuged at 5000×g at 25° C. for 11 minutes. Before LC-MS/MS analysis the supernatant was split to two fractions, 450 μL and 400 each followed by evaporation using a N2 stream at 35° C. to a volume of approximately […].
# Sample clean-up and chromatography of analytes were performed on-line by a column-switching set-up of two HPLC columns. From each sample 50 μL were injected (Shimadzu SilHTC) and loaded with water containing 0.1% formic acid onto a trapping column (Waters Oasis HLB 2.1×10 mm, 25 μm) with a flow rate of 0.3 mL/min. After 1.5 min the trapped analytes were then flushed (included a change in flow direction on the trapping column) onto an analytical column (Waters Atlantis T3 2.1×100 mm, 3 μm) with a total flow of 0.2 mL/min starting with 95/5% water containing 0.1% formic acid/acetonitrile. The fraction of acetonitrile was increased to 20% acetonitrile between 2 and 2.5 minutes, to 70% at 10 minutes and to 98% at 11 minutes. After 12 minutes the analytical column was equilibrated to start conditions (5% acetonitrile). […] The total running time was 14 min per sample.
# A triple quadrupole-linear ion trap mass spectrometer 4000 Qtrap equipped with an electrospray ionization source (Turbo V) was used, both from Applied Biosystems/MDS Sciex. Based on a published method of Dieckhaus et al. (2005) a precursor ion survey scan (PreIS) method was used to detect GSH-conjugates in negative ion mode. Briefly, as survey scan ions (400 to 900 amu within 2 seconds) are scanned for precursors of m/z 272 amu, the ion spray voltage was −4200 V, the source temperature 500° C., nitrogen was used as curtain and collision gas. If the parent molecule exceeds a molecular mass of 500 the scan range was changed to 500 amu to 1000 amu within 2 seconds. For signals in the survey scan exceeding 7500 cts (that was approximately 5 times of the background signal), enhanced resolution scan and enhanced product ion scan were triggered which allowed isotope determination and confirmation of a positive GSH adduct by the presence of diagnostic fragment ions. Further instrument settings were as following: Curtain gas: 30 psi, CAD gas: 10 psi Gas 1: 30 psi, Gas 2: 50 psi, declustering potential: −70 V, entrance potential: −10 V, collision energy: −24 V, and cell exit potential −15 V. Data acquisition was performed using Analyst 1.4.2, data analysis, i.e. sample control (solvent) comparisons were performed with Metabolite ID 1.3 (Applied Biosystems/MDS Sciex). (reference: Dieckhaus, C. M., Fernandez-Metzler, C. L., King, R., Krolikowski, P. H., and Baillie, T. A. (2005). Negative ion tandem mass spectrometry for the detection of glutathione conjugates. Chem Res Toxicol 18, 630-638).
# LYSA solubility = type: physicochemical; conditions: for solubility thermodynamic: 0.05 M phosphate buffer, pH 6.5, aqueous buffer, thermodynamic from solid
# Method: LYSA solubility assay is used to determine the aqueous solubility of a compound. Samples were prepared in duplicate from 10 mM DMSO stock solution. […] After one night, the solutions were filtered using a microtiter filter plate. Then the filtrate and its 1/10 dilution were analyzed by HPLC-UV.
SMILES,Ames result [1],GSH results [2],LYSA (LYSA solubility; 0.05 M phosphate buffer (pH 6.5)) [µg/mL],solubility thermodynamic (LYSA solubility) [µg/mL]
"CCCS(=N)(=O)c1nc(N)c2[nH]c(=O)n(Cc3ccc(C)nc3)c2n1 (stereo not drawn) [Example 34, 6-Amino-9-[(6-methyl-3-pyridyl)methyl]-2-(propylsulfonimidoyl)-7H-purin-8-one]",negative,No flag,–,–
"CCCS(=N)(=O)c1nc(N)c2[nH]c(=O)n(Cc3ccccc3)c2n1 (single isomer, unassigned) [Example 4-B, 6-Amino-9-benzyl-2-(propylsulfonimidoyl)-7H-purin-8-one]",negative,No flag,50,–
"CCCS(=N)(=O)c1nc(N)c2[nH]c(=O)n(Cc3ccc(Cl)cc3)c2n1 (stereo not drawn) [Example 9, 6-Amino-9-[(4-chlorophenyl)methyl]-2-(propylsulfonimidoyl)-7H-purin-8-one]",negative,No flag,–,–
"CCCS(=N)(=O)c1nc(N)c2[nH]c(=O)n(Cc3ccc(C)cc3)c2n1 (single isomer, unassigned) [Example 29-A, 6-Amino-2-(propylsulfonimidoyl)-9-(p-tolylmethyl)-7H-purin-8-one]",negative,No flag,–,6
"CCCS(=N)(=O)c1nc(N)c2[nH]c(=O)n(Cc3ccccc3)c2n1 (stereo not drawn) [Example 4, 6-Amino-9-benzyl-2-(propylsulfonimidoyl)-7H-purin-8-one]",negative,No flag,–,21
"CCS(=N)(=O)c1nc(N)c2[nH]c(=O)n(Cc3ccc(Cl)cc3)c2n1 (single isomer, unassigned) [Example 70-B, 6-Amino-9-[(4-chlorophenyl)methyl]-2-(ethylsulfonimidoyl)-7H-purin-8-one]",negative,No flag,–,5
"CCCS(=N)(=O)c1nc(N)c2[nH]c(=O)n(Cc3ccc(F)c(F)c3)c2n1 (stereo not drawn) [Example 27, 6-Amino-9-(3,4-difluorophenylmethyl)-2-(propylsulfonimidoyl)-7H-purin-8-one]",negative,No flag,–,7
"CCS(=N)(=O)c1nc(N)c2[nH]c(=O)n(Cc3ccc(C)cc3)c2n1 (single isomer, unassigned) [Example 71-A, 6-Amino-2-(ethylsulfonimidoyl)-9-(p-tolylmethyl)-7H-purin-8-one]",negative,No flag,–,13
"CCCS(=N)(=O)c1nc(N)c2[nH]c(=O)n(Cc3ccccc3)c2n1 (single isomer, unassigned) [Example 4-A, 6-Amino-9-benzyl-2-(propylsulfonimidoyl)-7H-purin-8-one]",negative,No flag,–,56
"CCS(=N)(=O)c1nc(N)c2[nH]c(=O)n(Cc3ccc(Cl)cc3)c2n1 (single isomer, unassigned) [Example 70-A, 6-Amino-9-[(4-chlorophenyl)methyl]-2-(ethylsulfonimidoyl)-7H-purin-8-one]",negative,No flag,–,–
"CCCS(=N)(=O)c1nc(N)c2[nH]c(=O)n(Cc3ccc(C(=O)O)cc3)c2n1 (stereo not drawn) [Example 39, 4-[[6-Amino-8-oxo-2-(propylsulfonimidoyl)-7H-purin-9-yl]methyl]benzoic acid]",negative,No flag,–,> 520
